Each structure is given as a SMILES string.

What all share (format): binding
The target of test [1] is T1, human serum albumin (HSA) (Homo sapiens, UniProt P02768).
T1 construct: gene ALB; fatty acid-free human serum albumin
Briefly: spectrofluorimetric titration (ex […] nm, em […] nm), pH […] °C.

The target in test [2] is T1, human serum albumin (HSA). Described as above. This is another data set of the same source.
Test [3] deals with T1, human serum albumin (HSA). Nature of the test: competitive displacement of heme-Fe(III) (spectrophotometry) and dansyl-arginine (fluorescence), pH […] °C.
The target in test [4] is T1, human serum albumin (HSA). Briefly: spectrophotometric titration ([…]-460 nm), pH […] °C.

T1 sequence (P02768 25-609): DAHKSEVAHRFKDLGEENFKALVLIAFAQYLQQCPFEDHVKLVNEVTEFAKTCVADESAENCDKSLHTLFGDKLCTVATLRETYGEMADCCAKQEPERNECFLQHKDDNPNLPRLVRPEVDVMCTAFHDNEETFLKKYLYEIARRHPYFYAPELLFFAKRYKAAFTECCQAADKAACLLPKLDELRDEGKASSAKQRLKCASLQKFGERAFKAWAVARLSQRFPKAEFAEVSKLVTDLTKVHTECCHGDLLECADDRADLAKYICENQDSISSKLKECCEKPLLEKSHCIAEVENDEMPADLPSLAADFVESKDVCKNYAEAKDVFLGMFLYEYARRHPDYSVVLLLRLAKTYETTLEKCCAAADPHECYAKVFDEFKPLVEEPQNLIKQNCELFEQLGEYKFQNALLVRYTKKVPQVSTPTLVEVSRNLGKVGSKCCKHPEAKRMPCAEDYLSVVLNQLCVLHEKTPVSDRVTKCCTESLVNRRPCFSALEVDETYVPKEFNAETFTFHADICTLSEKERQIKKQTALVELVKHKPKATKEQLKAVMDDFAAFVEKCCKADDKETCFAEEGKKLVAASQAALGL

As to `CN(C)c1cccc2c(S(=O)(=O)N[C@@H](CCCNC(=N)N)C(=O)O)cccc12` [dansyl-arginine], the Kd in test [1] turned out to be 27 ± 3 µM.
Regarding `CN(C)c1cccc2c(S(=O)(=O)N(C)CC(=O)O)cccc12` [dansyl-sarcosine], the Kd in test [2] stood at 5.1 ± 0.5 µM.
`N#CC[C@H](C1CCCC1)n1cc(-c2ncnc3[nH]ccc23)cn1` [ruxolitinib] had a Kd in test [3] of 3.1 ± 0.4 µM.
`C=CC1=C(C)C2=Cc3c(C=C)c(C)c4[n]3[Fe+][n]3c(c(C)c(CCC(=O)O)c3=CC3=NC(=C4)C(C)=C3CCC(=O)O)=CC1=N2` [heme-Fe(III)] returned a Kd in test [4] of 0.076 ± 0.008 µM.

Source of the values: PMC6841977, “Ruxolitinib binding to human serum albumin: bioinformatics, biochemical and functional characterization in JAK2V617F^+ cell models” (Scientific Reports, 2019).
